The source of these data is paper PMC6150310, “Synthesis and Structure–Activity Relationships of 4-Morpholino-7,8-Dihydro-5H-Thiopyrano[4,3-d]pyrimidine Derivatives Bearing Pyrazoline Scaffold” (Molecules : A Journal of Synthetic Chemistry and Natural …, 2017).

One data set deals with A549 cell line. Kind of data set: MTT cytotoxicity assay, A549. It counts as cell-based. The conditions noted are these: Homo sapiens, A549, 72 h, average of two determinations, NA = No Activity. The method, then: (§1) Taking GDC-0941 as the reference compound, the target compounds (7a–l and 8a–l) were evaluated for the cytotoxicity against four cancer cell lines A549, PC-3, MCF-7, and HepG2 by 3-(4,5-dimethylthiazolyl-2)-2,5-diphenyltetrazolium bromide (MTT) cell proliferation assay. In order to confirm the types of target compound, selective or mixed-type inhibitors, the selected compound, 8d, was measured for its PI3Kα kinase inhibitory activity together with reference compounds GDC-0941 and PI103 via the Kinase-Glo® Luminescent […] assay. The results expressed as inhibition rates or IC50 values are summarized in Table 1 and Table 2, where the values are the average of at least two independent experiments.
(§2) The in vitro cytotoxic activities of Compounds 7a–l and 8a–l were evaluated with A549, PC-3, HepG2, and MCF-7 cell lines by the standard MTT assay, with GDC-0941 as a positive control. The cancer cell lines were cultured in minimum essential medium (MEM) supplement with 10% fetal bovine serum (FBS). Approximately, 4 × 10^3 cells, suspended in MEM medium, were plated onto each well of a 96-well plate and incubated in 5% CO2 at 37 °C for 24 h. The test compounds at the indicated final concentrations were added to the culture medium, and cell cultures continued for 72 h. Fresh MTT was added to each well at a terminal concentration of […] and incubated with cells at 37 °C for 4 h. The formazan crystals were dissolved in 100 µL of DMSO in each well, and the absorbency at 492 nm (for absorbance of MTT formazan) and 630 nm (for the reference wavelength) was measured with an enzyme linked immunosorbent assay (ELISA) reader (MR-96A Mindray Elisa Microplate Reader, Guangzhou, China). All compounds were tested three times in each of the cell lines. The results expressed as inhibition rates or IC50 were the averages of two determinations and calculated using the Bacus Laboratories Inc. Slide Scanner (Bliss) software (the Bacus Laboratories Inc. Slide Scanner (BLISS) system, Lombard, IL, USA).

The next data set concerns PC-3 cell line. Kind of data set: MTT cytotoxicity assay, PC-3. It counts as cell-based. The conditions noted are these: Homo sapiens, PC-3, 72 h, average of two determinations, NA = No Activity. The method, then: as §1, §2
Background: Tetrazolium assays rely on reduction of a dye to a coloured formazan, in cell work by metabolically active cells.

The test system of another data set is HepG2 cell line. Kind of data set: MTT cytotoxicity assay, HepG2. Format: cell-based. The conditions noted are these: Homo sapiens, HepG2, 72 h, average of two determinations, NA = No Activity. The method, then: as §1, §2
The test system of another data set is MCF-7 cell line. The experiment in a line: MTT cytotoxicity assay, MCF-7. Format: cell-based. The following applies: Homo sapiens, MCF7, 72 h, average of two determinations, NA = No Activity. The protocol:
as §1, §2

A further data set has as its target PI3Kα (Homo sapiens, UniProt P42336). Kind of data set: PI3Kα Kinase-Glo Luminescent Kinase Assay. It counts as biochemical. The following applies: 1 µM ATP, 60 min, average of two determinations.
In data set [1] the test system is four cancer cell lines (A549, PC-3, MCF-7, HepG2). Kind of data set: MTT cytotoxicity assay, four cancer cell lines together. It counts as cell-based. The following applies: Homo sapiens, range over A549, PC-3, MCF-7, HepG2, read-out: IC50 values against four cancer cell lines. The protocol: as §1
The in vitro cytotoxic activities of Compounds 7a–l and 8a–l were evaluated with A549, PC-3, HepG2, and MCF-7 cell lines by the standard MTT assay, with GDC-0941 as a positive control. The cancer cell lines were cultured in minimum essential medium (MEM) supplement with 10% fetal bovine serum (FBS). […] The formazan crystals were dissolved in 100 µL of DMSO in each well, and the absorbency at 492 nm (for absorbance of MTT formazan) and 630 nm (for the reference wavelength) was measured with an enzyme linked immunosorbent assay (ELISA) reader (MR-96A Mindray Elisa Microplate Reader, Guangzhou, China). […]

Sequence of PI3Kα (P42336 whole entry): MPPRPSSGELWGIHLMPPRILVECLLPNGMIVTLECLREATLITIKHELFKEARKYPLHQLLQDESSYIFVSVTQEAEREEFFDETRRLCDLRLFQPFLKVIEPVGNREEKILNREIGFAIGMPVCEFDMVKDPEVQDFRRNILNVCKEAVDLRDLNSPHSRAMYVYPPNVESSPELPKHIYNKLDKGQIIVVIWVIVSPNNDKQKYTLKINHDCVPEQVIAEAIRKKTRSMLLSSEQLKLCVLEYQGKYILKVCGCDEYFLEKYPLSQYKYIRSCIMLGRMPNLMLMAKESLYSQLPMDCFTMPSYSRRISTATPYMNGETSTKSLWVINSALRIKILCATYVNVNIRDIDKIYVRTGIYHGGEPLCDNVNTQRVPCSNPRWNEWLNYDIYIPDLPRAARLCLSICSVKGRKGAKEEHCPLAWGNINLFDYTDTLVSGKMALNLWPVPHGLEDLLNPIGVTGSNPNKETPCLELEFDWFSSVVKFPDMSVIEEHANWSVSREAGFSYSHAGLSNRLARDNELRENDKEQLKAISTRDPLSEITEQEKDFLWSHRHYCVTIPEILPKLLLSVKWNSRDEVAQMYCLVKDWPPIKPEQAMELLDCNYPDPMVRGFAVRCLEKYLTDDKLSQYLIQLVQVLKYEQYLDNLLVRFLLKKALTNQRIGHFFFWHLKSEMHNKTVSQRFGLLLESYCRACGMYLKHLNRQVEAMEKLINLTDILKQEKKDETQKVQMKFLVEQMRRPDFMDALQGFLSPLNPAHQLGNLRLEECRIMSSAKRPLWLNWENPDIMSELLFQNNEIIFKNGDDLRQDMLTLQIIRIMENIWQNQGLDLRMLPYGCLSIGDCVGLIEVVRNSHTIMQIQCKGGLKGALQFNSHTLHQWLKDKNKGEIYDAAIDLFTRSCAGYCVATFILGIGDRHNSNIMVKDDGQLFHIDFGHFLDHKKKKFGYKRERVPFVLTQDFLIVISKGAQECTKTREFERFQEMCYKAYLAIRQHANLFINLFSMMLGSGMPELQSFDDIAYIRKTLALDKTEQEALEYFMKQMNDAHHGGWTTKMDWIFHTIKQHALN
Sequence of PI3Kα (P27986 whole entry partner): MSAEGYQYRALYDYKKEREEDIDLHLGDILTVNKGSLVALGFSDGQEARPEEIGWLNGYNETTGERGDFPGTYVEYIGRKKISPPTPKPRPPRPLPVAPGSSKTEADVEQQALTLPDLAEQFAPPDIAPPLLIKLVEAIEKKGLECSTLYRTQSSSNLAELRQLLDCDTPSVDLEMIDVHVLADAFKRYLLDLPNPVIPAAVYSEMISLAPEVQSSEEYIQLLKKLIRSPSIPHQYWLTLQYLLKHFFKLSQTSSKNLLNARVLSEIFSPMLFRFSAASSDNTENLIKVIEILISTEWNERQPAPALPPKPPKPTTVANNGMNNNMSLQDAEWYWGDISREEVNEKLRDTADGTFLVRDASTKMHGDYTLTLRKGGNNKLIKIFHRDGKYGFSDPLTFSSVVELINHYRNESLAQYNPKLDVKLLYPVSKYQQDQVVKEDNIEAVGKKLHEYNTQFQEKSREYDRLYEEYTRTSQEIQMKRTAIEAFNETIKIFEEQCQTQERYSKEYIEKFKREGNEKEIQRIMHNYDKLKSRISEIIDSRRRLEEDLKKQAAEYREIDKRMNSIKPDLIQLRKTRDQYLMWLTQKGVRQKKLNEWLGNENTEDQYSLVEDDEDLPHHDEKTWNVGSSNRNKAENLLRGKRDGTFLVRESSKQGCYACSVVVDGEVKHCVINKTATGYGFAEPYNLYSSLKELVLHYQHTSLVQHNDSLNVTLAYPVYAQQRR

Broadly, the IC50 is the point on the concentration scale where inhibition reaches its midpoint. For orientation: melting point means the temperature of the solid-liquid transition. With `c1ccc(C2=NN(c3nc4c(c(N5CCOCC5)n3)CSCC4)[C@@H](c3ccccc3)C2)cc1` [Compound 7a, (R)-4-(2-(3,5-Diphenyl-4,5-dihydro-1H-pyrazol-1-yl)-7,8-dihydro-5H-thiopyrano[4,3-d]pyrimidin-4-yl)morpholine], the melting point lay within 139 to 142 °C. Half-maximal inhibition with A549 cell line (IC50) required 21.7 ± 0.76 µM. Further, the IC50 in the data set with PC-3 cell line came to 28.8 ± 2.4 µM. In the data set on HepG2 cell line, this compound registered an IC50 of 20.3 ± 1.15 µM. In the data set with MCF-7 cell line, this compound showed an IC50 of 21.7 ± 0.78 µM.

The compound `Clc1ccc([C@H]2CC(c3ccc(Br)cc3)=NN2c2nc3c(c(N4CCOCC4)n2)CSCC3)cc1Cl` [Compound 7c, (R)-4-(2-(3-(4-Bromophenyl)-5-(3,4-dichlorophenyl)-4,5-dihydro-1H-pyrazol-1-yl)-7,8-dihydro-5H-thiopyrano[4,3-d]pyrimidin-4-yl)morpholine] showed a melting point of 185 to 186 °C. The compound further gave an IC50 in the data set with A549 cell line of 13 ± 0.42 µM. The compound further gave an IC50 with PC-3 cell line of 12.9 ± 1.56 µM. The IC50 in the data set with HepG2 cell line came to 15.36 ± 0.03 µM. Besides, the half-inhibitory concentration (IC50) with MCF-7 cell line amounted to 22.98 ± 0.19 µM.

Compound `Fc1ccc(C2=NN(c3nc4c(c(N5CCOCC5)n3)CSCC4)[C@@H](c3ccc(F)cc3)C2)cc1` [Compound 7g, (R)-4-(2-(3,5-Bis(4-fluorophenyl)-4,5-dihydro-1H-pyrazol-1-yl)-7,8-dihydro-5H-thiopyrano[4,3-d]pyrimidin-4-yl)morpholine] yielded a melting point of 144 to 146 °C. Besides, the IC50 in the data set on A549 cell line was 16.9 ± 0.66 µM. In the data set with PC-3 cell line, this compound showed an IC50 of 15.2 ± 1.54 µM. Also, the IC50 in the data set on HepG2 cell line was 20.3 ± 0.37 µM. In the data set on MCF-7 cell line, this compound had an IC50 of 26.4 ± 0.37 µM.

`O=S1(=O)CCc2nc(N3N=C(c4ccc(F)cc4)C[C@@H]3c3ccc(Cl)c(Cl)c3)nc(N3CCOCC3)c2C1` (racemic) [Compound 8d, (R)-2-(5-(3,4-Dichlorophenyl)-3-(4-fluorophenyl)-4,5-dihydro-1H-pyrazol-1-yl)-4-morpholino-7,8-dihydro-5H-thiopyrano[4,3-d]pyrimidine 6,6-dioxide]: the IC50 in the data set on MCF-7 cell line is 10.3 ± 0.94 µM; on PI3Kα it was 8.38 ± 0.21 µM; in data set [1], 6.02 to 10.3 µM.

The compound `Cc1ccc(C2=NN(c3nc4c(c(N5CCOCC5)n3)CSCC4)[C@@H](c3ccc(Cl)c(Cl)c3)C2)cc1` [Compound 7b, (R)-4-(2-(5-(3,4-Dichlorophenyl)-3-(p-tolyl)-4,5-dihydro-1H-pyrazol-1-yl)-7,8-dihydro-5H-thiopyrano[4,3-d]pyrimidin-4-yl)morpholine] came in with a melting point of 194 to 196 °C. Besides, in the data set with A549 cell line, half-maximal inhibition (IC50) was put at 24.2 ± 0.74 µM. Moreover, the IC50 in the data set with PC-3 cell line is 14.1 ± 3.45 µM. In addition, 27.8 ± 0.99 µM corresponded to half-maximal inhibition in the data set on HepG2 cell line (IC50). Further, the IC50 in the data set with MCF-7 cell line was determined as 42.6 ± 1.75 µM.

In the case of `O=S1(=O)CCc2nc(N3N=C(c4ccccc4)C[C@@H]3c3ccc(Br)cc3)nc(N3CCOCC3)c2C1` [Compound 8k, (R)-2-(5-(4-Bromophenyl)-3-phenyl-4,5-dihydro-1H-pyrazol-1-yl)-4-morpholino-7,8-dihydro-5H-thiopyrano[4,3-d]pyrimidine 6,6-dioxide], the melting point fell in the range of 163 to 167 °C. The compound also returned an IC50 in the data set on A549 cell line of 35 ± 0.47 µM. The same compound registered an IC50 in the data set with PC-3 cell line of 33.5 ± 1.67 µM. Further, the IC50 in the data set on HepG2 cell line was determined as 35.49 ± 0.33 µM. In the data set on MCF-7 cell line, the IC50 worked out at 32.6 ± 0.49 µM.
